Test results published in US7855200B2, “Method for treatment of gastric ulcers and ulcers induced by aspirin” (Council of Scientific and Industrial Research, priority 2006, dated 2010).

Key:
[1] = system: acetyl salicylic acid induced gastric lesions; test: Acetyl salicylic acid (aspirin) induced gastric ulcer; type: in vivo, albino rats; set-up: Ulcer index Mean(SE): scale not given here; conditions: rats, aspirin 200 mg/kg
Outline: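 Rats in groups of 6 were dosed orally once a day for five days with test compounds suspended in 1% Tween 80. A 1% Tween 80 control group and a ranitidine 50 mg/kg group were included. Aspirin at 200 mg/kg was given orally 30 min after each dose. After a 24 hour fast, the rats were killed by cervical dislocation. Stomachs were opened along the greater curvature, rinsed with lukewarm saline, examined under a dissecting microscope and scored for ulcer index.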

[2] = system: ethanol induced gastric ulcers; test: Ethanol induced ulcers; type: in vivo, albino rats; conditions: rats, ethanol challenge; for Acidity Total mEg / Gastric content / pH: 4 hours after pylorus ligation
Outline: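 Rats in groups of 6, fasted 48 h, given Tween 80 (1%) vehicle, reference drugs, or test compounds at 25 mg/kg; lesions induced 1 h after ethanol challenge. Pylorus ligated under ether; 4 h later gastric contents centrifuged and total acid titrated with 0.01N NaOH.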

[3] = 5 mg/kg per orally daily for five days
[4] = 10 mg/kg per orally daily for five days
[5] = 15 mg/kg per orally daily for five days
[6] = 25 mg/kg per orally daily for five days
[7] = 50 mg/kg per orally daily for five days

Q: Which results are given for `COC(=O)C1OC(Oc2cc3oc(-c4ccccc4)cc(=O)c3cc2OC)C(O)C(O)C1O` (stereo not shown) [OA-5, 3,4,5-trihydroxy-6-(6-methoxy-4-oxo-2-phenyl-4-H-chromen-7-yoloxy) tetrahydro-pyran-2-carboxylicacid methyl ester]?
A: Inhibition % [1, 3]: 18.75%; Ulcer index Mean(SE) [1, 3]: 36.66; Inhibition % [1, 4]: 40.98%; Ulcer index Mean(SE) [1, 4]: 26.66; Inhibition % [1, 5]: 40.98%; Ulcer index Mean(SE) [1, 5]: 26.66; Inhibition % [1, 6]: 74.55%; Ulcer index Mean(SE) [1, 6]: 11.06; Inhibition % [1, 7]: 77.84%; Ulcer index Mean(SE) [1, 7]: 10.00; Inhibition % ([2]; 5 mg/kg): 30.01%; Ulcer index Mean(SE) ([2]; 5 mg/kg): 46.66 (±0.80); Acidity Total mEg ([2]; 5 mg/kg): 42.66 (±3.95) m Eg; Gastric content ([2]; 5 mg/kg): 4.0 (±0.45); pH ([2]; 5 mg/kg): 3.5 (±0.40); Inhibition % ([2]; 10 mg/kg): 35.00%; Ulcer index Mean(SE) ([2]; 10 mg/kg): 43.33 (±5.40); Acidity Total mEg ([2]; 10 mg/kg): 31.33 (±1.36) m Eg; Gastric content ([2]; 10 mg/kg): 4.2 (±0.07); Inhibition % ([2]; 15 mg/kg): 60.61%; Ulcer index Mean(SE) ([2]; 15 mg/kg): 26.66 (±4.71); Acidity Total mEg ([2]; 15 mg/kg): 29.66 (±1.36) m Eg; Gastric content ([2]; 15 mg/kg): 4.0 (±0.82); pH ([2]; 15 mg/kg): 4.5 (±0.13); Inhibition % ([2]; 25 mg/kg): 82.50%; Ulcer index Mean(SE) ([2]; 25 mg/kg): 11.66 (±4.47); Acidity Total mEg ([2]; 25 mg/kg): 12.40 (±2.30) mEg; Gastric content ([2]; 25 mg/kg): 5.5 (±0.30); pH ([2]; 25 mg/kg): 6.81 (±0.26); Inhibition % ([2]; 50 mg/kg): 85.00%; Ulcer index Mean(SE) ([2]; 50 mg/kg): 10.00 (±6.23); Acidity Total mEg ([2]; 50 mg/kg): 18.25 (±7.10) mEg; Gastric content ([2]; 50 mg/kg): 7.4 (±0.72); pH ([2]; 50 mg/kg): 4.95 (±0.43)
